Experiments:
[1] = Response of probe to Fe(II)
Protocol: FIG. 8. Ratiometric fluorescence turn-on response of HyP-1 (2 μM) in the presence of FeSO4 (20 μM) and FeSO4 (20 μM)+GSH (1 mM) in 50 mM HEPES buffer (pH 7.4, 0.1% v/v CrEL) after 1 h incubation at 37° C.
Fe(II)-mediated reduction of N-oxides has been exploited previously for the development of several fluorescent probes for this metal ion, thus it was critical for us to determine the response of HyP-1 to Fe(II). […] However, because intracellular concentrations of free iron are low due to sequestration by ferritin, this was not anticipated to be a major source of HyP-1 activation in vivo.

4T1 tumour allografts [2] = experiment: In vivo fluorescence imaging of hypoxic tumour model; set-up: species or system BALB/c mice; conditions: intratumoural injection 50 μL, 100 μM; after 1 hour
Protocol: Tumour allografts were generated via subcutaneous implantation of 4T1 cells into the right flanks of BALB/c mice. The tumours were allowed to grow to volumes of 300-400 mm^3 prior to imaging. As an initial study to visualize the intratumoural conversion of HyP-1 to red-HyP-1 in real time, ratiometric fluorescence imaging was performed immediately following administration of HyP-1 (50 μL, 100 μM) via intratumoural or subcutaneous (control) injection.
All in vivo imaging experiments were performed with the approval of the Institutional Animal Care and Use Committee of the University of Illinois at Urbana-Champaign, following the principles outlined by the American Physiological Society on research animal use. Female mice (5-6 weeks old) were acquired from The Jackson Laboratory. A suspension of 0.5×10^6 cells in serum-free medium containing 50% v/v matrigel (100 μL) was subcutaneously injected into the right flank of each mouse. Tumours with volumes of 300-400 mm^3 formed after 12-15 days. […]
Images were obtained using epi-fluorescence with excitation filters of 675 and 745 and corresponding emission filters of 720 and 800, respectively. […] ROIs of equal area were drawn around signals, and the total radiant efficiency in each ROI was determined. Ratiometric signal was calculated by determining the ratio of radiant efficiency corresponding to 800 nm and 720 nm emissions.

rat liver microsomes = experiment: PA response after rat liver microsome incubation, tissue-mimicking phantom; type: biochemical; conditions: 2 h incubation with RLM, quenched with acetonitrile
Protocol: FIG. 4. Hypoxia-selective response of HyP-1 in vitro. […] Dashed lines indicate positioning of FEP tubes.
Tissue phantoms were prepared by suspending agarose (4 g) in a solution of 2% milk (2 mL) and deionized H2O (78 mL). The suspension was then heated in a microwave oven until a viscous gel was produced (30-50 seconds). The gel was transferred to a mold made by drilling holes through a 50 mL centrifuge tube and placing FEP tubes (0.08″ diameter) through the holes to create spaces for samples. After cooling the gel for a minimum of 3 hours, the solidified phantom was removed from the mold and cut with a razor blade such that the distance from the sample holes to the phantom's edges was 1.0 cm. To image samples, sample solutions were pipetted into FEP tubing (0.08″ diameter, cut to 10 cm long) which was inserted into the phantom and sealed by folding over the ends and securing with additional tubing (0.12″ diameter, cut to 5 mm long). Images were acquired using the Step and Shoot mode with 120 angles and 10 pulses per angle. Data was analysed using OsiriX Lite software (Version 8.0). Thick slab processing was used to visualize accumulated signal over 5 mm. ROIs of equal area were drawn around areas containing signal, and mean PA signal in each ROI was recorded.

ischemic hindlimb tissue = experiment: In vivo PA imaging of hindlimb ischemia model; set-up: species or system BALB/c mice; conditions: intramuscular 50 μL, 50 μM; 1 hour after injection
Protocol: After observing the hypoxia-mediated response of HyP-1 in the hindlimb ischemia model, attention was turned to detecting this response using PA imaging. As described above, surgical ligation was employed to induce ischemia, and HyP-1 (50 μL, 50 μM) was administered via intramuscular injection.
All in vivo imaging experiments were performed with the approval of the Institutional Animal Care and Use Committee of the University of Illinois at Urbana-Champaign, following the principles outlined by the American Physiological Society on research animal use. Female mice (5-6 weeks old) were acquired from The Jackson Laboratory. […] Animals that underwent unsuccessful surgery as determined by laser Doppler perfusion imaging were excluded from analysis.
(§1) Prior to imaging, hair was removed from the lower body half by shaving and treating with a topical hair removal cream. Mice were positioned on their sides such that the area to be imaged was directly above the light source. Images were acquired using the Step and Shoot mode with 120 angles and 30 pulses per angle. Data was analysed using OsiriX software. […] ROIs of equal area were drawn to include all visible signal in the image, and mean PA signal in each ROI was recorded. Change in PA signal was calculated by subtracting signal from images taken prior to injection from those at given time points.

4T1 tumour allografts [3] = experiment: In vivo PA imaging of hypoxic tumour model; set-up: species or system BALB/c mice; conditions: tail vein injection 0.3 mg/kg; 770 nm
Protocol: Next, attention was turned to the application of HyP-1 for hypoxia detection using PA imaging. HyP-1 (50 μL, 0.3 mg/kg) was administered to tumour-bearing mice intravenously via tail vein injection, and PA images of both the tumour-bearing and control flanks were acquired at 1, 3 and 5 hours following injection. […] The 3D-reconstructions of the PA images enabled visualization of specific areas within the tumour where signal was highest, a significant improvement compared to the minimally resolved signal obtained using fluorescence imaging (FIG. 6b). It was hypothesized that these areas of high intensity correlate with the highest concentrations of red-HyP-1, and therefore with regions of most severe hypoxia.
All in vivo imaging experiments were performed with the approval of the Institutional Animal Care and Use Committee of the University of Illinois at Urbana-Champaign, following the principles outlined by the American Physiological Society on research animal use. […]
as §1, with “Mice were positioned on their sides such that the area to be imaged was directly above the light source. Images were acquired using the Step and Shoot mode with 120 angles and 30 pulses per angle.” left out

[4] = test system: purified bacterial nitroreductase; experiment: Incubation with purified nitroreductase; type: biochemical; conditions: NADH, 37° C., 2 h
Protocol: FIG. 15. […] For the nitroreductase experiment, HyP-1 (2 μM) was incubated in the presence of nitroreductase (0.5 μg/mL) and NADH (100 μM) in 0.1 M potassium phosphate buffer (pH 7.4) at 37° C. for 2 h. For the bacterial experiment, bacteria were grown overnight, and cells were lysed via sonication. The suspension was centrifuged at 4000 rpm for 10 min, and the supernatant was removed. HyP-1 (2 μM) was incubated with cell lysate solution (1 mL) at 37° C. for 2 h.
In addition to Fe(II), the response of HyP-1 to a variety of alkali, alkaline earth and transition metals was also determined. […] To further evaluate the stability of HyP-1, a 10 μM solution of the probe was exposed to ambient light and temperature for up to 5 days. Additionally, a 10 μM solution of HyP-1 supplemented with human plasma was incubated at 37° C. for 3 hours. […] As mentioned previously, a major limitation of 2-nitroimidazole-based hypoxia probes is their susceptibility to oxygen-independent reduction via two-electron processes, such as by bacterial nitroreductases. […] Finally, the photostability of both HyP-1 and red-HyP-1 was evaluated via continuous PA image acquisition at 770 nm over the course of 1 hour.

CC[N+]([O-])(CC)c1ccc(-c2cc(-c3ccccc3)c3n2[B-](F)(F)[N+]2=C(c4ccc(OC)cc4)C=C(c4ccccc4)C2=N3)cc1 [HyP-1, 4-(5,5-difluoro-7-(4-methoxyphenyl)-1,9-diphenyl-5H-5λ^4,6λ^4-dipyrrolo[1,2-c:2′,1′-f][1,3,5,2]triazaborinin-3-yl)-N,N-diethylaniline oxide]
ratiometric turn-on ([1]; 20 μM FeSO4 + 1 mM GSH, HEPES buffer, 1 h): 35 fold | ratiometric turn-on ([1]; 20 μM FeSO4 in HEPES buffer, 1-hour incubation): 8 fold | ratiometric fluorescent turn-on, tumour tissue versus subcutaneous control (4T1 tumour allografts [2]): 5.6 fold | PA signal (770 nm), hypoxic reaction versus normoxic (rat liver microsomes): 4 fold | PA signal enhancement, ischemic tissue versus control leg (ischemic hindlimb tissue): 3.1 fold | PA signal increase in control flank (4T1 tumour allografts [3]): no increase | mean PA signal increase in tumour tissue (4T1 tumour allografts [3]): 20.5 a.u. | conversion to red-HyP-1 [4]: minimal conversion
